Results from patent publication US9796719B2, “Compounds and pharmaceutical compositions thereof for the treatment of inflammatory disorders” (GALAPAGOS NV, priority 2013, dated 2017).

Assays:
Assay type in all cases: biochemical
[1] = system: LPA 18:2; assay: Rat whole blood (plasma) LPA assay
Protocol: Whole blood is collected from rats or mouse by exsanguinations on sodium heparin tube, then after centrifugation at 3000 rpm for 15 min at 4° C., plasma is stored at −80° C. Compounds are diluted in DMSO in concentration dependent manner then 0.5 μL are dispensed into 96-wells plate placed in ice. Plasma is defrosted on ice then 49.5 μL of plasma are added into the well containing 0.5 μL of compound (1% DMSO final). Plates are covered with a lid in polypropylene and incubated at +37° C., 5% CO2, for 2 h under gentle shaking (except controls which are stored at −20° C.).
At the end of the incubation, controls are defrosted in ice and transferred in the incubated plates for LC-MS/MS analysis with a non GLP-validated method. For the analysis, plasma proteins from a 10 μL incubated plates are precipitated with an excess of methanol containing the internal standard, LPA 17:0. After centrifugation, the corresponding supernatant is injected on a C18 column. Analytes are eluted out of the column under isocratic conditions. An API5500 QTRAP mass spectrometer (ABSciex™) is used for the detection of LPA 18:2. No calibration curve is prepared for LPA 18:2, however relative quantities are evaluated based on the peak area.

[2] = biological target: T1, hENPP2 (UniProtKB/SwissProt Sequence ref Q13822) (Homo sapiens (Human), UniProt Q13822); assay: LPC hENPP2 assay (choline release, LPC as substrate)
How it was run: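 Choline released from LPC by ENPP2 is quantified after stopping with stop-developer containing 0.6 U/mL choline oxidase, 0.6 U/mL peroxidase, 1.8 mM TOOS, 1.2 mM amino-antipyrine and 20 mM EGTA. Quinoneimine dye read at 555 nm after 30 min at room temperature.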

[3] = biological target: T1, hENPP2; assay: FS3 hENPP2 assay (fluorogenic substrate FS-3); conditions: hENPP2, FS-3 as substrate
How it was run: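 Compound dilutions (1/5 steps, top concentration as added 20 μM) were preincubated 30 min at room temperature with hENPP2 (0.4 or 0.64 μg/mL final) in pH 8.0 Tris buffer containing NaCl, KCl, MgCl2, CaCl2 and 0.1% fatty-acid-free BSA. FS-3 (0.75 μM as added) was then hydrolysed for 30 min at 30 °C, and fluorescence was read at 485/520 nm.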

IC50 [1] | IC50 [2] | IC50 [3] | SMILES
100 to 500 nM | 100 to 500 nM | 0.01 to 25 nM | CCc1nc2ccc(N3CCN(CC4CNC(=O)O4)CC3)nn2c1N(C)c1nc(-c2ccc(F)cc2)cs1 (stereo not drawn) [Cpd 40, 5-((4-(2-ethyl-3-((4-(4-fluorophenyl)thiazol-2-yl)(methyl)amino)imidazo[1,2-b]pyridazin-6-yl)piperazin-1-yl)methyl) oxazolidin-2-one]
100 to 500 nM | 500 to 1000 nM |  | CCc1nc2ccc(C3CCN(S(C)(=O)=O)CC3)nn2c1N(C)c1nc(-c2ccc(F)cc2C#N)c(CO)s1 [Cpd 206, 2-(2-((2-ethyl-6-(1-(methylsulfonyl)piperidin-4-yl)imidazo[1,2-b]pyridazin-3-yl)(methyl)amino)-5-(hydroxymethyl)thiazol-4-yl)-5-fluorobenzonitrile]
> 1000 nM | 100 to 500 nM | 0.01 to 25 nM | CCc1nc2cnc(N3CCN(CC(=O)N4CCOCC4)CC3)cn2c1N(C)c1nc(-c2ccc(F)cc2)c(C#N)s1 [Cpd 10, 2-((2-ethyl-6-(4-(2-morpholino-2-oxoethyl)piperazin-1-yl)imidazo[l,2-a]pyrazin-3-yl)(methyl)amino)-4-(4-fluorophenyl) thiazole-5-carbonitrile]
0.01 to 100 nM | 100 to 500 nM | 0.01 to 25 nM | CCc1nc2cnc(C3CCN(CC(=O)N4CC[C@@H](O)C4)CC3)cn2c1N(C)c1nc(-c2ccc(F)cc2)c(C#N)s1 [Cpd 24, (R)-2-((2-ethyl-6-(1-(2-(3-hydroxypyrrolidin-1-yl)-2-oxoethyl)piperidin-4-yl)imidazo[1,2-a]pyrazin-3-yl)(methyl)amino)-4-(4-fluorophenyl) thiazole-5-carbonitrile]
> 1000 nM | 500 to 1000 nM |  | CCc1nc2ccc(N3CCC4(CNC(=O)O4)C3)nn2c1N(C)c1nc(-c2ccc(F)cc2)cs1 (stereo not drawn) [Cpd 118, 7-(2-ethyl-3-((4-(4-fluorophenyl)thiazol-2-yl)(methyl)amino)imidazo[1,2-b]pyridazin-6-yl)-1-oxa-3,7-diazaspiro[4.4] nonan-2-one]
100 to 500 nM | 0.01 to 100 nM | 0.01 to 25 nM | CCc1nc2ccc(C3CCN(CC(=O)N4CC(O)C4)CC3)nn2c1N(C)c1cccc(-c2ccc(F)cc2C#N)n1 [Cpd 213, 2-(6-((2-ethyl-6-(1-(2-(3-hydroxyazetidin-1-yl)-2-oxoethyl)piperidin-4-yl)imidazo[1,2-b]pyridazin-3-yl)(methyl)amino)pyridin-2-yl)-5-fluorobenzonitrile]
0.01 to 100 nM | 100 to 500 nM | 0.01 to 25 nM | CCc1nc2cnc(C3CCN(CC(=O)N4CC[C@H](O)C4)CC3)cn2c1N(C)c1nc(-c2ccc(F)cc2)c(C#N)s1 [Cpd 25, (S)-2-((2-ethyl-6-(1-(2-(3-hydroxypyrrolidin-1-yl)-2-oxoethyl)piperidin-4-yl)imidazo[1,2-a]pyrazin-3-yl)(methyl)amino)-4-(4-fluorophenyl) thiazole-5-carbonitrile]
0.01 to 100 nM | 0.01 to 100 nM |  | CCc1nc2ccc(N3CCC(N4CCOCC4)C3)nn2c1N(C)c1nc(-c2ccc(F)cc2)c(C#N)s1 (stereo not drawn) [Cpd 149, 2-((2-ethyl-6-(3-morpholino-pvrrolidin-1-yl)imidazo[1,2-b]pyridazin-3-yl)(methyl)amino)-4-(4-fluorophenyl) thiazole-5-carbonitrile]
> 1000 nM | > 1000 nM |  | CCc1nc2cnc(N3CCN(CC(=O)N4CC(O)C4)CC3)cn2c1N(C)c1nc(-c2ccc(F)cc2)cs1 [Cpd 14, 2-(4-(2-ethyl-3-((4-(4-fluorophenyl)thiazol-2-yl)(methyl)amino)imidazo[1,2-a]pyrazin-6-yl)piperazin-1-yl)-1-(3-hydroxyazetidin-1-yl)ethanone]
100 to 500 nM | 100 to 500 nM |  | CCc1nc2ccc(C3CCN(S(C)(=O)=O)CC3)nn2c1N(C)c1nc(-c2ccc(F)cc2C#N)cs1 [Cpd 205, 2-(2-((2-ethyl-6-(1-(methylsulfonyl)piperidin-4-yl)imidazo[1,2-b]pyridazin-3-yl)(methyl)amino)thiazol-4-yl)-5-fluorobenzonitrile]
 | > 1000 nM | 0.01 to 25 nM | CCc1nc2ccc(N3CCC(C(N)=O)CC3)nn2c1N(C)c1nc(-c2ccc(F)cc2)cs1 [Cpd 98, 1-(2-ethyl-3-((4-(4-fluorophenyl)thiazol-2-yl)(methyl)amino)imidazo[1,2-b]pyridazin-6-yl)piperidine-4-carboxamide]
 | > 1000 nM | 25 to 50 nM | CCc1nc2cnc(C3CCNCC3)cn2c1N(C)c1nc(-c2ccc(F)cc2)c(C#N)s1 [Cpd 22, 2-((2-ethyl-6-(piperidin-4-yl)imidazo[1,2-a]pyrazin-3-yl)(methyl)amino)-4-(4-fluorophenyl) thiazole-5-carbonitrile]
 | > 1000 nM | 0.01 to 25 nM | CCc1nc2ccc(N3CC4CN(C(C)=O)CC4C3)nn2c1N(C)c1nc(-c2ccc(F)cc2)cs1 (stereo not drawn) [Compound 124, 1-(5-(2-ethyl-3-((4-(4-fluorophenyl)thiazol-2-yl)(methyl)amino)imidazo[1,2-b]pyridazin-6-yl)hexahydropyrrolo[3,4-c]pyrrol-2(1H)-yl)ethanone]
 | 100 to 500 nM | 0.01 to 25 nM | CCc1nc2ccc(N3CCN(CC4CCCO4)CC3)nn2c1N(C)c1nc(-c2ccc(F)cc2)cs1 (stereo not drawn) [Cpd 48, N-(2-ethyl-6-(4-((tetrahydrofuran-2-yl)methyl)piperazin-1-yl)imidazo[1,2-b]pyridazin-3-yl)-4-(4-fluorophenyl)-N-methylthiazol-2-amine]
 | > 1000 nM | 0.01 to 25 nM | CCc1nc2ccc(N3CCCC(CO)C3)nn2c1N(C)c1nc(-c2ccc(F)cc2)cs1 (stereo not drawn) [Cpd 94, (1-(2-ethyl-3-((4-(4-fluorophenyl)thiazol-2-yl)(methyl)amino)imidazo[1,2-b]pyridazin-6-yl)piperidin-3-yl)methanol]
 | 100 to 500 nM | 0.01 to 25 nM | CCc1nc2cnc(N3CCN(CC(=O)N4CCCC4)CC3)cn2c1N(C)c1nc(-c2ccc(F)cc2)c(C#N)s1 [Cpd 8, 2-((2-ethyl-6-(4-(2-oxo-2-(pyrrolidin-1-yl)ethyl)piperazin-1-yl)imidazo[1,2-a]pyrazin-3-yl)(methyl)amino)-4-(4-fluorophenyl) thiazole-5-carbonitrile]
 | 100 to 500 nM | 0.01 to 25 nM | CCc1nc2cnc(N3CCN(CC(=O)N4CCC4)CC3)cn2c1N(C)c1nc(-c2ccc(F)cc2)c(C#N)s1 [Cpd 4, 2-((6-(4-(2-(azetidin-1-yl)-2-oxoethyl)piperazin-1-yl)-2-ethylimidazo[1,2-a]pyrazin-3-yl)(methyl)amino)-4-(4-fluorophenyl) thiazole-5-carbonitrile]
 | > 1000 nM | 0.01 to 25 nM | CCc1nc2ccc(N3CCC(N4CCS(=O)(=O)CC4)C3)nn2c1N(C)c1nc(-c2ccc(F)cc2)cs1 (stereo not drawn) [Cpd 150, {6-[3-(1,1-Dioxo-thiomorpholin-4-yl)-pyrrolidin-1-yl]-2-ethyl-imidazo[1,2-b]pyridazin-3-yl}-[4-(4-fluoro-phenyl)-thiazol-2-yl]-methyl-amine]
 | 100 to 500 nM | 0.01 to 25 nM | CCc1nc2ccc(C3CCN(CC(=O)N4CC(O)C4)CC3)nn2c1N(C)c1nccc(-c2ccc(F)cc2)n1 [Cpd 215, 2-(4-(2-ethyl-3-((4-(4-fluorophenyl)pyrimidin-2-yl)(methyl)amino)imidazo[1,2-b]pyridazin-6-yl)piperidin-1-yl)-1-(3-hydroxyazetidin-1-yl)ethanone]
 | > 1000 nM | 0.01 to 25 nM | CCc1nc2ccc(N3CCCC(CNS(C)(=O)=O)C3)nn2c1N(C)c1nc(-c2ccc(F)cc2)cs1 (stereo not drawn) [Cpd 102, N-((1-(2-ethyl-3-((4-(4-fluorophenyl)thiazol-2-yl)(methyl)amino)imidazo[1,2-b]pyridazin-6-yl)piperidin-3-yl)methyl) methanesulfonamide]
 | > 1000 nM | 0.01 to 25 nM | CCc1nc2ccc(N3CCN4C(=O)OC[C@@H]4C3)nn2c1N(C)c1nc(-c2ccc(F)cc2)cs1 [Compound 61, (S)-7-(2-ethyl-3-((4-(4-fluorophenyl)thiazol-2-yl)(methyl)amino)imidazo[1,2-b]pyridazin-6-yl)tetrahydro-1H-oxazolo[3,4-a]pyrazin-3 (5H)-one]
 | 500 to 1000 nM | 0.01 to 25 nM | CCc1nc2ccc(N3CCN(CCCO)CC3)nn2c1N(C)c1nc(-c2ccc(F)cc2)cs1 [Cpd 49, 3-(4-(2-ethyl-3-((4-(4-fluorophenyl)thiazol-2-yl)(methyl)amino)imidazo[1,2-b]pyridazin-6-yl)piperazin-1-yl)propan-1-ol]
 | 100 to 500 nM | 0.01 to 25 nM | CCc1nc2ccc(N3CCN(CC(=O)N4CCCC4)CC3)nn2c1N(C)c1nc(-c2ccc(F)cc2)cs1 [Cpd 55, 2-(4-(2-ethyl-3-((4-(4-fluorophenyl)thiazol-2-yl)(methyl)amino)imidazo[1,2-b]pyridazin-6-yl)piperazin-1-yl)-1-(pyrrolidin-1-yl)ethanone]
